How the values were obtained:
[1] = system: MBP reactive T-cell lines; test: Reactivity of MBP-reactive T-cell lines to overlapping human MBP peptides (proliferation assay); type: cell-based; details: for mean frequency of T-cell lines selectively reactive to the peptide, MS vs controls (FIG. 1): result in words
Description: A rapid T-cell cloning technique was used to examine whether there were immunodominant epitopes on human MBP reactive with Class II MHC phenotypes and the frequency of such reactivity. A total of 15,824 short term T-cell lines were generated from 51 human subjects by culturing peripheral blood mononuclear cells ([…]) with purified MBP (100 μg) followed 3 days later, and then every 3-4 days, by the addition of interleukin-2 (IL-2; from ABI, Columbia, Md.) and 2 units recombinant interleukin-4 (IL-4; Genzyme, Boston, Mass.). On Day 13 of culture, an aliquot from each line was tested for reactivity to MBP using the following proliferation assay: T-cell clones (1×10^5 cells/well) were plated in triplicate and cocultured with appropriate stimuli (i.e. 100 μg whole MBP or 5% IL-2) for 72 hours at 37° C., 90% humidity, 5% CO2, in 96 well flat bottomed microtiter plates (Costar). The cells were pulsed with 2 μCi [^3 H]TdR (2 Ci/mmole, New England Nuclear, Boston, Mass.) for the last 18 hours of culture. APCs were prepared by pulsing human Epstein-Barrvirus transformed human B-cells (the virus being commercially available from ATCC) or L-cells which are mouse cells transfected with human DR2 (L-cells are commercially available from ATCC under accession No. ATCC-CCL1 and can be transfected according to the method of Wilkinson, D. et al, J. Exp. Med., 1988, 167:1442-1458 using DNA encoding DR2 as per Wu, S. et al J. Immunol., 1987, 138:2953). B-cells or L-cells were used at 1×10^6 cells/well in complete media either in the presence or absence of 40 pM MBP or phospholipid protein (PLP) for 2 hours at 37° C., washing twice with 4° C. Hanks (Whittaker), followed by irradiation with 5000 rad. at 4° C. To stimulate T-cells without accessory APCs, 2 μM of MBP, PLP, or the appropriate fragment was added directly to the cells for the duration of the culture: 48 hours, followed by pulsing […] and then harvesting. Ten thousand APC's were used for 100,000 T-cell clones.
T-cell lines shown to be reactive to MBP or PLP were then tested using the same technique for reactivity to overlapping oligopeptide 20-mers encompassing the human MBP sequence as shown in Table 1 above. […]
Of a total of 302 cell lines from patients with MS that could be expanded and confirmed to react with MBP on repeated analysis, 140 (46.4%) reacted with MBP residues 84-102; and approximately 70-80% reacted with either MBP residues 84-102 or 143-168. […] The actual frequency of T-cells derived from the peripheral blood that reacted with each MBP peptide for each individual subject was calculated. […]

actively induced EAE = test: Suppression of actively induced EAE (immunization with MBP/CFA); type: in vivo, Lewis rats; details: FIG. 7, words
[2] = system: short term T-cell lines generated from peripheral blood mononuclear cells; test: Frequency of MBP- and PLP-reactive short term T-cell lines (proliferation assay); type: cell-based, human; details: mean +/-SEM
Description: A rapid T-cell cloning technique was used to examine whether there were immunodominant epitopes on human MBP reactive with Class II MHC phenotypes and the frequency of such reactivity. A total of 15,824 short term T-cell lines were generated from 51 human subjects by culturing peripheral blood mononuclear cells ([…]) with purified MBP (100 μg) followed 3 days later, and then every 3-4 days, by the addition of interleukin-2 (IL-2; from ABI, Columbia, Md.) and 2 units recombinant interleukin-4 (IL-4; Genzyme, Boston, Mass.). On Day 13 of culture, an aliquot from each line was tested for reactivity to MBP using the following proliferation assay: T-cell clones (1×10^5 cells/well) were plated in triplicate and cocultured with appropriate stimuli (i.e. 100 μg whole MBP or 5% IL-2) for 72 hours at 37° C., 90% humidity, 5% CO2, in 96 well flat bottomed microtiter plates (Costar). […]
Subjects with other central nervous system diseases had the following diagnoses: 1-3 weeks after either cerebrovascular accident (n=4), brain trauma with CNS hemorrhage (n=4), or metastatic brain tumor (n=2). […] In addition, the frequency of MBP and PLP-reactive lines was calculated separately for each subject by dividing the number of MBP-reactive lines by the total number of lines generated and the mean values +/-SEM are given. […]

Molecule: FKGVDAQGTLSKIFKLGGRD [143-168, human MBP amino acid residues 143-168]
- fraction of MBP reactive T-cell lines that recognized either the 84-102 or the 143-168 peptide ([1]; control groups, 100 lines): about 34%
- fraction of MBP-reactive cell lines that reacted with either MBP residues 84-102 or 143-168 ([1]; patients with MS, 302 cell lines): 70-80%
- mean frequency of T-cell lines selectively reactive to the peptide, MS vs controls (FIG. 1) [1]: both MS and control subjects showed high frequencies

Molecule: HHPARTAHYGSLPQKSEGRT [61-82]
- mean frequency of T-cell lines selectively reactive to the peptide, MS vs controls (FIG. 1) [1]: Significant but less striking increases in reactivity

Molecule: guinea pig MBP peptide 131-150: Control guinea pig MBP peptide 131-150 (DYKSKGFKGAHDAQGTLSKI; UniProt P25188 131-150, looked up, fragment)
- suppression of EAE via IV tolerization (actively induced EAE; administered intravenously prior to immunization): did not suppress
- suppression of EAE via oral tolerization (actively induced EAE; administered orally prior to immunization): did not suppress

B1: PLP: proteolipid protein, myelin autoantigen (protein, UniProt P60201 2-277, looked up)
Myelin proteolipid protein: GLLECCARCLVGAPFASLVATGLCFFGVALFCGCGHEALTGTEKLIETYFSKNYQDYEYLINVIHAFQYVIYGTASFFFLYGALLLAEGFYTTGAVRQIFGDYKTTICGKGLSATVTGGQKGRGSRGQHQAHSLERVCHCLGKWLGHPDKFVGITYALTVVWLLVFACSAVPVYIYFNTWTTCQSIAFPSKTSASIGSLCADARMYGVLPWNAFPGKVCGSNLLSICKTAEFQMTFHLFIAAFVGAAATLVSLLTFMIAATYNFAVLKLMGRGTKF
- MEAN FREQUENCY OF Ag REACTIVE LINES ([2]; MS patients (n = 23)): 3.34 ± 1.56
- MEAN FREQUENCY OF Ag REACTIVE LINES ([2]; other neurological disease (n=10)): 0.90

Source: patent US6036957A, “Suppression of T-cell proliferation using peptide fragments of myelin basic protein” (Autoimmune, Inc., priority 1995, dated 2000)
